In brackets after ≈: the same amount, converted by molar mass.
Assays:
physchem = conditions: 50% w/w aqueous hpcd
Protocol: An excess of E2-CDS was sonicated with an aqueous solution of the appropriate solubilizing agent for 30 minutes. The suspension was then centrifuged, filtered through 0.45 µm polyvinylidene difluoride (Millex-HV4, Millipore®) membranes and analyzed by HPLC. […] An estimation of the bulk equilibrium constant was obtained by correlating the millimolarity of E2-CDS solubilized and the millimolarity of the cyclodextrin added. This latter value was calculated using the average molecular weight of the isomeric mixture determined by mass spectroscopy. The solubilizing effect of a 50% w/w solution of HPCD was also examined for a series of steroids and dihydropyridines (CDS). These studies were carried out in a similar manner to those previously described.
For the CDS, the wavelength monitored was 360 nm while for estrogen 220 nm was used.
Separation was achieved on an Analytical Sciences, Inc. (ASI) 10 µm particle size, C18 reversed phase 30 cm x 3.9 mm i.d. analytical column. The flow rate was 1 mL/min, the compounds were detected at 360 nm and in all determinations the temperature was ambient. […] For the GABA-CDS1, a mobile phase consisting of 50:1:1:48 of the same components was required. […] Other compounds were assayed spectrophotometrically.

[1] = Solid complex of E2-CDS with maltosyl-β-cyclodextrin/dimaltosyl-β-cyclodextrin mixture; format: physicochemical
Protocol: In one example of the formulation of a solid complex, an excess of a representative CDS, E2-CDS, was added to a 40% aqueous solution of a mixture of maltosyl-β-cyclodextrin (71%) and various dimaltosyl-β-cyclodextrins (29%) obtained from Ensuiko Sugar Co., Ltd., Lot No. 88190, and mixed for several hours. The suspension was then filtered and freeze-dried, and the amount of complexed drug was determined analytically by UV spectraphotometry. The amount of incorporation was determined to be 81.88 mg/g.

[2] = Aqueous solubility and stability of the E2-CDS-HPCD complex; format: physicochemical
Protocol: The E2-CDS-HPCD complex contains about 40 mg of E2-CDS/g and easily gives aqueous solutions containing 5 mg E2-CDS/mL at 20% w/v cyclodextrin. […] The halflife of E2-CDS in such a solution at room temperature in the dark is about 12.5 days (rate: 0.0554 ± 0.0047d^-1).

For CN1C=CCC(C(=O)O[C@H]2CC[C@H]3[C@@H]4CCc5cc(O)ccc5[C@H]4CC[C@]23C)=C1 [Example E2-CDS, 3-Hydroxy-17β-[(1-methyl-1,4-dihydropyridin-3-yl)carbonyl]oxyestra-1,3,5(10)-triene], the solubility (physchem) was 22 mg/mL (≈ 55.9 mM), the amount of incorporation ([1]; 40% aqueous maltosyl-β-cyclodextrin (71%) / dimaltosyl-β-cyclodextrins (29%), freeze-dried) was 81.88 mg/g and the “amount of incorporation, comparable figure” value ([1]; HPCD) was “approximately 36.2 mg/g”. The “rate (of degradation)” value ([2]; 5 mg E2-CDS/mL at 20% w/v cyclodextrin, room temperature in the dark) was 0.0554 ± 0.0047 day⁻¹, the half-life ([2]; 20% w/v aqueous hpcd, 5 mg E2-CDS/mL at 20% w/v cyclodextrin, room temperature in the dark) was roughly 12.5 days and the “increase in aqueous solubility by complexation” value ([2]; 20% w/v cyclodextrin versus water) was 25,000 fold.

Source: EP0335545B2, “Pharmaceutical formulations for parenteral use” (UNIVERSITY OF FLORIDA, priority 1988, dated 1989)
